# Laboratory results as given in US20250281610A1, “P2RY2 ACTIVITY MODULATORS” (Deutsches Krebsforschungszentrum Stiftung des öffentlichen …, priority 2022, published 2025).
# Key:
# Assay type in all cases: cell-based, human
# [1] = system: CD33-specific CAR transduced T cells co-cultured with THP-1 cells; experiment: T cell cytokine production in co-culture of CD33-specific CAR-T cells with THP-1 cells; conditions: 5 μM AR-C
# Procedure: FIG. 8. Effects of P2RY2 antagonist on T cells and cancer cells in T cell-cancer cell co-cultures. T cells transduced with CD33-specific CAR (CAR-T) were co-cultured with genetically edited THP-1 cells in the absence or presence of 5 μM AR-C 118925XX (AR-C) for 6-24 hours. Control cells: THP-1 cells transduced with non-targeting sgRNA and Cas9 (gNT); P2RY2 deficient cells: THP-1 cells transduced with P2RY2-targeting sgRNA and Cas9 (gP2RY2-3, gP2RY2-4); B7-H3 (CD276) deficient cells: THP-1 cells transduced with B7-H3-targeting sgRNA and Cas9 (gCD276-1); P2RY2 and B7-H3 double deficient cells: THP-1 cells transduced with P2RY2-targeting sgRNA, B7-H3-targeting sgRNA, and Cas9 (gCD276-1 gP2RY2-3 DKO, gCD276-1 gP2RY2-4 DKO); P2RY2 overexpression cells: THP-1 cells transduced with the open reading frame of P2RY2 (P2RY2-OE); B7-H3 overexpression cells: THP-1 cells transduced with the open reading frame of CD276 (CD276-OE). Transduced cancer cells were selected by antibiotics according to antibiotic resistance genes carried by the lentiviral constructs. Flow cytometry analysis of expression of production of IFNγ and TNFα within the CD3+CD8+ cell population is shown (values indicate the percentages of positive cells). For the viability of THP-1 cells, normalized cell counts of viable cells after co-culture with CD33-specific CAR-T cells is shown. The end-point cell counts were normalized to the number of THP-1 cells in cultures without T cells.
# MART-1 specific T cells were generated as described (Mezzadra et al., Nature 549, 106-110 (2017); Jorritsma et al., Blood 110 (10): 3564-3572. (2007)). […]
# The open reading frames of transcripts of P2RY2(ENST00000393597.7) or CD276(ENST00000318443.10), were ordered as a codon optimized gBlock Gene Fragment (Integrated DNA Technologies or Twist Bioscience) and cloned into a lentiviral vector containing a blasticidin selection cassette. […]
# MART1-specific CD8+ T cells and MART1 epitope-expressing cancer cells were mixed at a ratio of 1:16 to 1:4. […] T cell activation was assessed by surface staining with anti-CD137-BV421 (4-1BB, Biolegend), anti-CD69-APC/Fire™ 750 (FN50, Biolegend), anti-CD25-AF700 (BC96, Biolegend) antibodies and intracellular staining with anti-IL-2-PE/Cy7 (MQ1-17H12, Biolegend), anti-IFN-7-BV421 (4S.B3, Biolegend), anti-TNF-α-BV785 (MAb11, Biolegend) antibodies, followed by flow cytometry analysis. […] The viability of cancer cells that grow in suspension including THP-1 cells was assessed by flow cytometry-based absolute cell counting using AccuCount beads (Spherotech). For adherent cancer cells including BxPC3 and MCF7, the cell viability was quantified using CellTiter-Blue Cell Viability Assay (Promega).
# [2] = system: MART-1-specific TCR transduced T cells cultured with MART-1-epitope transduced BxPC3 cells; experiment: T cell activation markers in co-culture of MART-1-specific TCR-T cells with MART-1+ BxPC3 cells; conditions: single agent: 5 μM AR-C, 10 μg/ml atezolizumab or 10 μg/ml durvalumab, 6-24 hours, CD8+ MART-1-specific TCR+ population (FIG. 10)
# Description: FIG. 10. […] Untreated cells served as the control.
# (§1) MART-1 specific T cells were generated as described (Mezzadra et al., Nature 549, 106-110 (2017); Jorritsma et al., Blood 110 (10): 3564-3572. (2007)). To generate CD33-specific chimeric antigen receptor (CAR) T cells, a CD33Hul95-CD28Z CAR (described in WO 2019/178382) cassette was cloned into a retroviral vector, and the resulting virus was used to transduce T cells as described (Mezzadra et al., Nature 549, 106-110 (2017); Jorritsma et al., Blood 110 (10): 3564-3572. (2007)).
# MART1-specific CD8+ T cells and MART1 epitope-expressing cancer cells were mixed at a ratio of 1:16 to 1:4. […] T cell activation was assessed by surface staining with anti-CD137-BV421 (4-1BB, Biolegend), anti-CD69-APC/Fire™ 750 (FN50, Biolegend), anti-CD25-AF700 (BC96, Biolegend) antibodies and intracellular staining with anti-IL-2-PE/Cy7 (MQ1-17H12, Biolegend), anti-IFN-7-BV421 (4S.B3, Biolegend), anti-TNF-α-BV785 (MAb11, Biolegend) antibodies, followed by flow cytometry analysis. For intracellular staining, brefeldin A (Biolegend) was added to the cell culture medium 4 h before cells were harvested. The viability of cancer cells that grow in suspension including THP-1 cells was assessed by flow cytometry-based absolute cell counting using AccuCount beads (Spherotech). For adherent cancer cells including BxPC3 and MCF7, the cell viability was quantified using CellTiter-Blue Cell Viability Assay (Promega).
# BxPC3 cells = experiment: Viability of BxPC3 cells in co-culture with MART-1-specific TCR-T cells (CellTiter-Blue); conditions: single agent: 5 μM AR-C, 10 μg/ml atezolizumab or 10 μg/ml durvalumab, 6-24 hours (FIG. 11)
# Description: FIG. 11. […] Untreated cells served as the control.
# as §1
# MART1-specific CD8+ T cells and MART1 epitope-expressing cancer cells were mixed at a ratio of 1:16 to 1:4. Next, cells were centrifugated at 1,600 g for 3 min and incubated at 37° C. and 5% CO2 for 12-72 hours. T cell activation was assessed by surface staining with anti-CD137-BV421 (4-1BB, Biolegend), anti-CD69-APC/Fire™ 750 (FN50, Biolegend), anti-CD25-AF700 (BC96, Biolegend) antibodies and intracellular staining with anti-IL-2-PE/Cy7 (MQ1-17H12, Biolegend), anti-IFN-7-BV421 (4S.B3, Biolegend), anti-TNF-α-BV785 (MAb11, Biolegend) antibodies, followed by flow cytometry analysis. For intracellular staining, brefeldin A (Biolegend) was added to the cell culture medium 4 h before cells were harvested. The viability of cancer cells that grow in suspension including THP-1 cells was assessed by flow cytometry-based absolute cell counting using AccuCount beads (Spherotech). For adherent cancer cells including BxPC3 and MCF7, the cell viability was quantified using CellTiter-Blue Cell Viability Assay (Promega).
# [3] = 6-24 hours, P2RY2 proficient THP-1 cells, CD3+CD8+ population (FIG. 8)
# [4] = P2RY2 deficient THP-1 cells (FIG. 8)
compound,measurement,setting,value
Cc1ccc2c(c1)C=Cc1cc(C)ccc1C2c1cn(Cc2ccc(C(=O)Nc3nn[nH]n3)o2)c(=O)[nH]c1=S [AR-C 118925XX],production of IFNγ by T cells,[1]; [3],increased
same,production of TNFα by T cells,[1]; [3],increased
same,production of IFNγ in T cell upon P2RY2 deletion,[1]; [4],does not influence
same,production of TNFα in T cell upon P2RY2 deletion,[1]; [4],does not influence
same,expression of CD25 on T cells,[2],elevated
same,expression of CD69 on T cells,[2],elevated
same,expression of CD137 on T cells,[2],elevated
same,viability of BxPC3 cells,BxPC3 cells,reduced
